# According to ChEMBL document CHEMBL1158411, “Second generation of BACE-1 inhibitors part 3: Towards non hydroxyethylamine transition state mimetics” (Bioorg Med Chem Lett, 2009):
# Legend:
# Cathepsin D = Cathepsin D (Homo sapiens, UniProt P07339); test: Inhibition of cathepsin-D
# Beta-secretase 1 [1] = biological target: T1, Beta-secretase 1 (Homo sapiens, UniProt P56817); test: Inhibition of BACE1
# Beta-secretase 2 = biological target: T2, Beta-secretase 2 (Homo sapiens, UniProt Q9Y5Z0); test: Inhibition of BACE2
# T2 sequence (Q9Y5Z0 whole entry): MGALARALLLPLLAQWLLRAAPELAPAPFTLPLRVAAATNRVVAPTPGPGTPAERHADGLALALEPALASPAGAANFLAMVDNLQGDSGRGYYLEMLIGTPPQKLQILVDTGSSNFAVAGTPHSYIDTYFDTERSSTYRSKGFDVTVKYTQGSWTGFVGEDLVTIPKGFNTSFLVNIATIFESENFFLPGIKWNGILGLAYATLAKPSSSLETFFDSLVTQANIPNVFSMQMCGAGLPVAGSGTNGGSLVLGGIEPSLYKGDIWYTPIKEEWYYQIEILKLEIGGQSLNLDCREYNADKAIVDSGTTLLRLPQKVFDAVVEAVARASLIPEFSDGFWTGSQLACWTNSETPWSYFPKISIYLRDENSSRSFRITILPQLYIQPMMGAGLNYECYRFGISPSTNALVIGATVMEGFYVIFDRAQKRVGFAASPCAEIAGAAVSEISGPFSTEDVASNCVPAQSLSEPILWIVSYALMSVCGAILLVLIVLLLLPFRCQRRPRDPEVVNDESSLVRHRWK
# Beta-secretase 1 [2] = biological target: T1, Beta-secretase 1; test: Inhibition of BACE1 in human SHSY5Y cells expressing wild type APP assessed as inhibition of intracellular amyloid beta-40 secretion; format: cell-based, SH-SY5Y
# [3] = Lipophilicity, log D at pH 7.4; conditions: buffer
# [4] = Half life in rat at 1 mg/kg/hr, iv; format: ADME, organism-based; design: route intravenous; conditions: in vivo
# [5] = Cmax in rat at 10 mg/kg; format: ADME, organism-based; design: dose 10 mg/kg; conditions: in vivo
# [6] = Bioavailability in rat; format: ADME, organism-based; conditions: in vivo
# [7] = Blood clearance in rat at 1 mg/kg/hr, iv; format: ADME, organism-based; design: route intravenous
# [8] = Volume of distribution in rat at 1 mg/kg/hr, iv; format: ADME, organism-based; design: route intravenous; conditions: in vivo
# [9] = Blood clearance in dog at 1 mg/kg/hr, iv; format: ADME, organism-based, Canis lupus familiaris; design: route intravenous
# [10] = Volume of distribution in dog at 1 mg/kg/hr, iv; format: ADME, organism-based, Canis lupus familiaris; design: route intravenous; conditions: in vivo
# [11] = Half life in dog at 1 mg/kg/hr, iv; format: ADME, organism-based, Canis lupus familiaris; design: route intravenous; conditions: in vivo
# [12] = Cmax in dog at 10 mg/kg; format: ADME, organism-based, Canis lupus familiaris; design: dose 10 mg/kg; conditions: in vivo
# [13] = Bioavailability in dog; format: ADME, organism-based, Canis lupus familiaris; conditions: in vivo
# Blood [14] = test: Steady sate drug level in blood of mdr1a/b knockout mouse by HPLC analysis; format: ADME, tissue-based; conditions: read-out: Css
# Blood [15] = test: Steady sate drug level in blood of wild type mouse expressing mdr1a/b by HPLC analysis; format: ADME, tissue-based
# Brain [16] = test: Steady sate drug level in brain of mdr1a/b knockout mouse by HPLC analysis; format: ADME, tissue-based; conditions: in vivo, read-out: Css
# Brain [17] = test: Steady sate drug level in brain of wild type mouse expressing mdr1a/b by HPLC analysis; format: ADME, tissue-based; conditions: in vivo
# [18] = Blood clearance in mdr1a/b knockout mouse by HPLC analysis; format: ADME, organism-based
# [19] = Blood clearance in wild type mouse expressing mdr1a/b by HPLC analysis; format: ADME, organism-based
# [20] = Ratio of steady sate drug level in brain to blood of mdr1a/b knockout mouse; format: ADME, tissue-based
# [21] = Ratio of steady sate drug level in brain to blood of wild type mouse expressing mdr1a/b; format: ADME, tissue-based
# T1 sequence (P56817 whole entry): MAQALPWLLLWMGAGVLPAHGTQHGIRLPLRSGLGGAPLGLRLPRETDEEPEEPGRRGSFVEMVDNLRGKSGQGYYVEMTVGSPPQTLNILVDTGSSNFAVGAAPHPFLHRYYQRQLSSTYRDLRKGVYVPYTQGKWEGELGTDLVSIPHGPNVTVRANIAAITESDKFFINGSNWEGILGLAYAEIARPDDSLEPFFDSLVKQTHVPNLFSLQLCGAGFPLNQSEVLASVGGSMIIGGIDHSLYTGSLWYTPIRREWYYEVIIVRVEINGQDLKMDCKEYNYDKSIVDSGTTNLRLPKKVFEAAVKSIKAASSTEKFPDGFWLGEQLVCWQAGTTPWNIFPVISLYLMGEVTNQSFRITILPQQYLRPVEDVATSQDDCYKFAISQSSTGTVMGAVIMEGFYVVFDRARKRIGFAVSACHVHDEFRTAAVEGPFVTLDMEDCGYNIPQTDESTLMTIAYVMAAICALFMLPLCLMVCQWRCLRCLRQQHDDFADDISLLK
# Cathepsin D, sequence (P07339 65-162 limits assumed): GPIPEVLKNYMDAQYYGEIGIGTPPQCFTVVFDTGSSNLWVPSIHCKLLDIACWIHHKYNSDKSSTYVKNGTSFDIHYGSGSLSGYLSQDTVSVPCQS
# Cathepsin D, sequence (P07339 169-412 limits assumed): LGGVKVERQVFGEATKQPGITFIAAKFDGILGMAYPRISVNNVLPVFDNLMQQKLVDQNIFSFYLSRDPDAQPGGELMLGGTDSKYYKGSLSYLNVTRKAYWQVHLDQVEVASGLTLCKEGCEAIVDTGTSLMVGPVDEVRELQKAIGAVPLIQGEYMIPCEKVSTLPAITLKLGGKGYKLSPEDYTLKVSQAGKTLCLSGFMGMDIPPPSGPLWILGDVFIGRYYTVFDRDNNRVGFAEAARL
Compound,IC50 (Cathepsin D),IC50 (Beta-secretase 1 [1]),IC50 (Beta-secretase 2),IC50 (Beta-secretase 1 [2]),logD [3],also measured
CC[C@@H](C)NC[C@@H](O)[C@H](Cc1ccccc1)NC(=O)c1cc2c3c(cn(CC)c3c1)CCS(=O)(=O)N2C,1190 nM,10 nM,420 nM,64 nM,–,–
CCc1cn2c3c(cc(C(=O)N[C@@H](Cc4ccccc4)[C@H](O)CNCC4CCOCC4)cc13)OS(=O)(=O)CC2,130 nM,86 nM,450 nM,–,–,–
C#CCNC[C@@H](O)[C@H](Cc1ccccc1)NC(=O)c1cc2c3c(cn(CC)c3c1)CCS(=O)(=O)N2C,34600 nM,11 nM,1490 nM,26 nM,–,–
CCn1cc2c3c(cc(C(=O)N[C@@H](Cc4ccccc4)[C@H](O)CNc4ccccc4)cc31)N(C)S(=O)(=O)CC2,–,5 nM,–,739 nM,–,–
CCn1cc2c3c(cc(C(=O)N[C@@H](Cc4ccccc4)C(=O)CNC4CCOCC4)cc31)N(C)S(=O)(=O)CC2,–,–,–,48 nM,–,–
CCc1cn2c3c(cc(C(=O)N[C@@H](Cc4ccccc4)[C@H](O)CNC4CC4)cc13)OS(=O)(=O)CC2,2970 nM,250 nM,1150 nM,–,–,–
CCn1cc2c3c(cc(C(=O)N[C@@H](Cc4ccccc4)[C@H](O)CNC4CC4)cc31)N(C)S(=O)(=O)CC2,6790 nM,–,370 nM,–,1.79,–
CCn1cc2c3c(cc(C(=O)N[C@@H](Cc4ccccc4)[C@H](O)CNCC(F)(F)F)cc31)N(C)S(=O)(=O)CC2,–,79 nM,–,2110 nM,–,–
C#CCNC[C@@H](O)[C@H](Cc1ccccc1)NC(=O)c1cc2c3c(c1)c(CC)cn3CCS(=O)(=O)O2,15100 nM,360 nM,3200 nM,–,–,–
CCn1cc2c3c(cc(C(=O)N[C@@H](Cc4ccccc4)[C@H](O)CNCCC(F)(F)F)cc31)N(C)S(=O)(=O)CC2,570 nM,–,75 nM,–,2.59,half-life [4]: 3.3 h; Cmax [5]: 88 nM; bioavailability [6]: 13%; clearance [7]: 57 mL/min/kg; Vd [8]: 11 L/kg; clearance [9]: 14 mL/min/kg; Vd [10]: 4.8 L/kg; half-life [11]: 6.8 h; Cmax [12]: 3590 nM; bioavailability [13]: 52%; concentration (Blood [14]): 339 nM; Css (Blood [15]): 381 nM; concentration (Brain [16]): 335 nM; Css (Brain [17]): 40 nM; clearance [18]: 94 mL/min/kg; clearance [19]: 85 mL/min/kg; Kp [20]: 0.99; Kp [21]: 0.1
CCn1cc2c3c(cc(C(=O)N[C@@H](Cc4ccccc4)[C@H](O)CNC4CCOCC4)cc31)N(C)S(=O)(=O)CC2,2110 nM,5 nM,590 nM,27 nM,0.9,–
CCn1cc2c3c(cc(C(=O)N[C@@H](Cc4ccccc4)[C@H](O)CNCC(F)(F)C(F)(F)F)cc31)N(C)S(=O)(=O)CC2,–,32 nM,–,4430 nM,–,–
CCn1cc2c3c(cc(C(=O)N[C@@H](Cc4ccccc4)[C@H](O)CNCC(F)F)cc31)N(C)S(=O)(=O)CC2,–,20 nM,–,51 nM,–,–
CCc1cn2c3c(cc(C(=O)N[C@@H](Cc4ccccc4)[C@H](O)CNCc4cccc(C(F)(F)F)c4)cc13)OS(=O)(=O)CC2,2160 nM,8 nM,260 nM,–,–,–

# Second part, led by results:
IC50 (Cathepsin D),IC50 (Beta-secretase 1 [1]),IC50 (Beta-secretase 2),IC50 (Beta-secretase 1 [2]),logD [3],Compound,also measured
890 nM,7 nM,28 nM,8 nM,2.8,CCc1cn2c3c(cc(C(=O)N[C@@H](Cc4ccccc4)[C@H](O)CNCCC(F)(F)F)cc13)N(C)S(=O)(=O)CC2,–
–,8 nM,–,29 nM,–,CCCNC[C@@H](O)[C@H](Cc1ccccc1)NC(=O)c1cc2c3c(cn(CC)c3c1)CCS(=O)(=O)N2C,–
60 nM,9 nM,210 nM,90 nM,1.31,CCc1cn2c3c(cc(C(=O)N[C@@H](Cc4ccccc4)[C@H](O)CNC4CCOCC4)cc13)N(C)S(=O)(=O)CC2,–
5430 nM,22 nM,430 nM,144 nM,1.52,CCc1cn2c3c(cc(C(=O)N[C@@H](Cc4ccccc4)[C@H](O)CN[C@H](C)CC)cc13)N(C)S(=O)(=O)CC2,–
75500 nM,73 nM,3100 nM,118 nM,–,C#CCNC[C@@H](O)[C@H](Cc1ccccc1)NC(=O)c1cc2c3c(c1)c(CC)cn3CCS(=O)(=O)N2C,–
36300 nM,48 nM,1140 nM,262 nM,–,CCNC[C@@H](O)[C@H](Cc1ccccc1)NC(=O)c1cc2c3c(c1)c(CC)cn3CCS(=O)(=O)N2C,–
–,40 nM,–,245 nM,–,CCn1cc2c3c(cc(C(=O)N[C@@H](Cc4ccccc4)[C@H](O)CNCCF)cc31)N(C)S(=O)(=O)CC2,–
–,11 nM,–,–,2.17,CCc1cn2c3c(cc(C(=O)N[C@@H](Cc4ccccc4)[C@H](O)CNC4CC4)cc13)N(C)S(=O)(=O)CC2,bioavailability [6]: 17%; concentration (Blood [14]): 397 nM; Css (Blood [15]): 490 nM; concentration (Brain [16]): 989 nM; Css (Brain [17]): 61 nM; clearance [18]: 62 mL/min/kg; clearance [19]: 72 mL/min/kg; Kp [20]: 2.41; Kp [21]: 0.13
19500 nM,23 nM,2170 nM,73 nM,0.07,CCNC[C@@H](O)[C@H](Cc1ccccc1)NC(=O)c1cc2c3c(cn(CC)c3c1)CCS(=O)(=O)N2C,–
–,50 nM,–,209 nM,–,CCc1cn2c3c(cc(C(=O)N[C@@H](Cc4ccccc4)[C@H](O)CNCCF)cc13)N(C)S(=O)(=O)CC2,–
